Test results: US12576052B2, “Metformin inhalation powder aerosol for treating idiopathic pulmonary fibrosis and preparation method thereof” (Wenzhou Medical University, priority 2022, dated 2026)

Tests used:
[1] = tested on: α-SMA; experiment: α-SMA immunofluorescence of lung tissue in bleomycin-induced pulmonary fibrosis mice; assay type: in vivo, C57BL6 mice; settings: BLM+Met vs BLM group; inhalation powder aerosol of Embodiment 2, 5 mg per mouse every day for 3 weeks; FIG. 7
Description: Among them, BLM: bleomycin-induced pulmonary fibrosis mouse model group; BLM+Met: the effect of atomization inhalation of metformin on macroscopic damage of lung in mice with pulmonary fibrosis.
Dosage of inhaled metformin: the reference value of local administration concentration of metformin in upper respiratory tract is 200 mg/kg. […]
α-SMA immunofluorescence: lung tissue slides are dried at 65° C., dewaxed with xylene and dehydrated with gradient alcohol. […] The slides are sealed and the fluorescence intensity is observed under a fluorescence microscope.
Statistical analysis: the experimental data of each group are statistically analyzed by GraphpadPrism9.0 software. All the experimental data are tested for normality, and the measurement data are expressed as mean±standard deviation. […]

[2] = mouse, in vivo
Description: (§1) According to the experimental results and the conversion rules of equivalent dose between different species (as shown in table 3), the no observable adverse effect level (NOAEL) of mice is converted into the human equivalent dose HED.
(§2) Among them, NOAEL: no observable adverse effect level dose obtained through animal preclinical toxicology research; HED: human equivalent dose.

[3] = tested on: mice with pulmonary fibrosis; experiment: Bleomycin-induced pulmonary fibrosis mouse model: body weight, macroscopic lung damage, HE and Masson staining; assay type: in vivo, C57BL6 mice; settings: inhalation powder aerosol of Embodiment 2, 5 mg per mouse every day for 3 weeks
Description: Establishment of pulmonary fibrosis model: C57BL6 mice aged 6-8 weeks are selected and adapted for one week. Bleomycin (3 mg/kg/50 μl) is given orally to mice in BLM group and BLM+Met group on the first day, and the dry powder of bleomycin is prepared to the required concentration with sterile phosphate buffer saline non-surgical method of bleomycin orally injected into mice's lungs: mice are anesthetized with isoflurane and hung on the operating board at 70°. Bleomycin is dripped orally using a 200 μl pipette).
Dosage of inhaled metformin: the reference value of local administration concentration of metformin in upper respiratory tract is 200 mg/kg. According to the weight of 25 g per mouse, each mouse inhales 5 mg of metformin inhalation powder aerosol in Embodiment 2 every day for 3 weeks.
Weighing: weights of the mice are weighed at a fixed time every morning and recorded, and the changes of mice's weight are observed at different times in each group.
Hematoxylin Eosin (HE) staining and Masson staining: the lung tissue of mice is fixed in 4% paraformaldehyde for 24 hours, washed overnight with running water, dehydrated by conventional alcohol, embedded in paraffin, cut into 5-micron slides, stained with HE and Masson, and sealed with neutral gum after applying xylene for transparency. The pathological changes of lung are observed under optical microscope and photos are taken.
Statistical analysis: the experimental data of each group are statistically analyzed by GraphpadPrism9.0 software. All the experimental data are tested for normality, and the measurement data are expressed as mean±standard deviation. The mean of multiple groups of samples is compared by One-way Analysis of Variance (one-way ANOVA). P<0.05 is statistically significant. The results are shown in FIG. 5A, FIG. 5B, FIG. 6 and FIG. 7.

[4] = NOAEL of mice and conversion into human equivalent dose (HED)
Description: as §1, §2

[5] = tested on: IPF patients; settings: after 52 weeks of treatment; cited from earlier work

Row | SMILES | expression of α-SMA (immunofluorescence) [1] | maximum recommended initial inhalation dose for the first human study [2] | alveolar structure (Masson and HE staining) ([3]; BLM+Met group, FIG. 6) | inflammatory cells in alveolar cavity and alveolar septum ([3]; BLM+Met group, FIG. 6) | body weight of mice with pulmonary fibrosis ([3]; BLM+Met vs BLM group, FIG. 5A) | macroscopic damage of lung ([3]; BLM+Met vs BLM group, FIG. 5B) | collagen fibers (Masson and HE staining) ([3]; BLM+Met vs BLM group, FIG. 6) | degree of fibrosis (Masson and HE staining) ([3]; BLM+Met vs BLM group, FIG. 6) | NOAEL at 3 weeks ([4]; C57BL6, mouse, in vivo, inhaled or intranasal, 200 mg/kg) | HED (human equivalent dose) ([4]; NOAEL of mice/12.3) | disease progression of IPF patients [5]
1 | CN(C)C(=N)N=C(N)N [Metformin, metformin] | decreased significantly | 97.8 mg | complete | no obvious inflammatory cells | decreased | pink, with smooth surface and elastic touch | significantly reduced | significantly improved | 200 mg/kg | 16.3 mg/kg | –
2 | Cc1ccc(=O)n(-c2ccccc2)c1 [pirfenidone] | – | – | – | – | – | – | – | – | – | – | effectively slow down the disease progression
